Patent publication US11149022B2, “Antagonists of the muscarinic acetylcholine receptor M4” (Vanderbilt University, priority 2017, dated 2021)

How the values were obtained:
[1] = system: haloperidol-induced catalepsy; assay: haloperidol-induced catalepsy, a model of parkinsonian motor disability; format: in vivo, mice
Text: Furthermore, haloperidol-induced catalepsy, a model of parkinsonian motor disability, is reduced in M4 knockout mice as compared to wild-type controls. […] The reversal by scopolamine was uncommonly robust and more pronounced than we observe with agents targeting a number of other targets being evaluated for potential antiparkinsonian effects, including metabotropic glutamate (mGlu) receptors mGlu4 or mGlu5, A2A adenosine receptors, and NMDA receptors. […] Taken together with the extensive studies of M4 modulation of basal ganglia and motor function, these studies provide compelling evidence that M4 is the dominant mAChR subtype involved in the antiparkinsonian effects of non-selective mAChR antagonists and provide support for discovery and development of selective M4 antagonists for treatment of neurodegenerative disease such as PD, dystonia, tardive dyskinesia and other movement disorders.

locomotor activity = conditions: M4 knockout mice, but not the other four mAChR subtypes (M1-3,5); cited from earlier work

CN1[C@@H]2C[C@@H](OC(=O)[C@H](CO)c3ccccc3)C[C@H]1[C@@H]1O[C@@H]12 [scopolamine]
reduction of catalepsy induced by haloperidol ([1]; M4 KO mice): ineffective
reversal of catalepsy induced by haloperidol ([1]; WT mice): completely reversed
locomotor-activating effects (locomotor activity): dramatically reduced
